The values that follow come from publication PMC4742234, “Screening of Drug Metabolizing Enzymes for the Ginsenoside Compound K In Vitro: An Efficient Anti-Cancer Substance Originating from Panax Ginseng” (PLoS ONE, 2016).

Assay type in all cases: in vitro ADME
In data set [1] the target is T1, CYP1A2 (Homo sapiens, UniProt P05177).
T1 construct: tissue Cypex Ltd. (U.K.); host or cells: pooled human liver microsomes
T1 sequence (P05177 1-516): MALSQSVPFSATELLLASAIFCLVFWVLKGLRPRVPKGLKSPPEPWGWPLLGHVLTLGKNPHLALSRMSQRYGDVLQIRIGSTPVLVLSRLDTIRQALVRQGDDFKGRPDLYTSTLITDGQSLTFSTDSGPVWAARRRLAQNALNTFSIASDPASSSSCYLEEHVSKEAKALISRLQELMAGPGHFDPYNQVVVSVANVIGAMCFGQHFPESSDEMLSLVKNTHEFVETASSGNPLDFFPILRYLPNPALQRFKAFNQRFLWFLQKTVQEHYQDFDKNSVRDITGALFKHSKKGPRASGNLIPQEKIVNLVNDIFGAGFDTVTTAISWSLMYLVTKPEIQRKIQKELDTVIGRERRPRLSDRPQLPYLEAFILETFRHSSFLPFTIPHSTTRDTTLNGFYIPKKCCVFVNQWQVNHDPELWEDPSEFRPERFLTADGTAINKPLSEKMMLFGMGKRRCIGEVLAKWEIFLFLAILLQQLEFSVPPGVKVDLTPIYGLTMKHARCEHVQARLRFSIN
In words: Inhibition of CYP1A2 (phenacetin O-deethylation) by CK in HLMs. How it is done:
(§1) The method was conducted according to our previous study with some modifications. The CYP isoform-specific probe reactions used were phenacetin O-deethylation (for CYP1A2), coumarin 7-hydroxylation (for CYP2A6), tolbutamide 4-hydroxylation (for CYP2C9), metoprolol α-hydroxylation (for CYP2D6), chlorzoxazone 6-hydroxylation (for CYP2E1),S-Mephenytoin 4-hydroxylation (for CYP2C19), and midazolam 1-hydroxylation (for CYP3A4). The kinetic study of CK was conducted with HLMs. A 0.2 mL incubation mixture that consisted of CK (as a substrate), the HLMs (0.5 mg/mL) or CYP isoforms (10 pmol), and 0.1 M sodium phosphate buffer (pH 7.4) was pre-warmed for 5 min at 37°C. The reaction was initiated by the addition of 1 mg/mL triphosphopyridine nucleotide (NADPH). All the reagents were dissolved in methanol, and the final solvent concentration in all incubations (including the controls) was 1%. The final incubations were performed in a shaking water bath (37°C) for 30 min. The reactions were stopped by adding 0.2 mL ice-cold acetonitrile, which contains irbesartan (114.9 ng/mL) as the internal standard. The samples were vortexed for 5 min. After centrifugation (12000×g for 10 min), the supernatants were transferred, and aliquots of 20 μL were injected into the HPLC-MS/MS system for analysis.
(§2) CK (10–100 μM) and a single CYP isoform-specific substrate (with a concentration similar to its corresponding Kmvalue) were used to determine the inhibitory effect of CK on specific CYP isoforms as described in detail previously. Substrates including phenacetin, coumarin, tolbutamide, metoprolol, chlorzoxazone, S-Mephenytoin, and midazolam were used at concentrations of 10, 5, 100, 7.5, 40, 100, and 5 μM, respectively. All incubation conditions were the same as mentioned above. The inhibitory effects on the CYP isoforms were investigated individually by incubating the HLMs in the absence or presence of CK. […]

Data set [2] deals with CYP2C9 (Homo sapiens, UniProt P11712). In words: Inhibition of CYP2C9 (tolbutamide 4-hydroxylation) by CK in HLMs. More on the design: tissue Cypex Ltd. (U.K.); host or cells: pooled human liver microsomes. The method, then:
as §1
CK (10–100 μM) and a single CYP isoform-specific substrate (with a concentration similar to its corresponding Kmvalue) were used to determine the inhibitory effect of CK on specific CYP isoforms as described in detail previously. Substrates including phenacetin, coumarin, tolbutamide, metoprolol, chlorzoxazone, S-Mephenytoin, and midazolam were used at concentrations of 10, 5, 100, 7.5, 40, 100, and 5 μM, respectively. All incubation conditions were the same as mentioned above. The inhibitory effects on the CYP isoforms were investigated individually by incubating the HLMs in the absence or presence of CK. The incubation solution with the solvent that was used to dissolve CK was regarded as the negative control, and the solutions containing the specific inhibitors mentioned above were considered the positive controls.
Therefore, Dixon plots for the inhibition of CYP2C9 and CYP3A4 were determined by incubating the substrate probe at multiple concentrations with or without the test inhibitor with the HLMs and cofactors. The inhibition data obtained from the pilot experiments were used as a guide to generate the appropriate probe substrate and test inhibitor concentrations for the determination of the Ki values for each CYP isoform. The isoform-specific probe substrate concentrations used were 25–200 μM tolbutamide for CYP2C9 and 5–50 μM midazolam for CYP3A4. The CK concentrations used were 10–100 μM.
Therefore, we used S/V versus [I] plots to determine the Ki’ values for the inhibition of CYP2C9 and CYP3A4. When Ki>Ki’, the intersection was above the [I] axis in the plot of S/V against [I] and below it in the Dixon plot; the opposite was true if Ki<Ki’. In the special case where Ki = Ki’ (simple non-competitive inhibition), the intersections occurred on the [I] axis in both plots. The asymptotic cases of competitive and uncompetitive inhibition can be generated by inserting the conditions Ki’ to ∞ for competitive inhibition, or Ki to ∞ for uncompetitive inhibition.
As described in detail previously, to determine the major enzymes responsible for the CK metabolism in HLMs, the metabolic clearance rate of the incubation solution without any specific inhibitor for CK was considered as 100%. The effects of the specific inhibitors on the metabolic clearance rate of CK were evaluated with SPSS one-way analysis of variance (SPSS Inc., Chicago, IL, USA). P<0.05 was considered significant in all cases. The apparent kinetic parameters of CK (Km and Vmax) were determined by fitting the Michaelis–Menten equation using the GraphPad Prism Enzyme Kinetic 5 Demo software (GraphPad Co. Ltd, San Diego, CA, USA). […]

Data set [3] deals with T2, CYP2C19 (Homo sapiens, UniProt P33261).
T2 construct: tissue Cypex Ltd. (U.K.); host or cells: pooled human liver microsomes
T2 sequence (P33261 whole entry): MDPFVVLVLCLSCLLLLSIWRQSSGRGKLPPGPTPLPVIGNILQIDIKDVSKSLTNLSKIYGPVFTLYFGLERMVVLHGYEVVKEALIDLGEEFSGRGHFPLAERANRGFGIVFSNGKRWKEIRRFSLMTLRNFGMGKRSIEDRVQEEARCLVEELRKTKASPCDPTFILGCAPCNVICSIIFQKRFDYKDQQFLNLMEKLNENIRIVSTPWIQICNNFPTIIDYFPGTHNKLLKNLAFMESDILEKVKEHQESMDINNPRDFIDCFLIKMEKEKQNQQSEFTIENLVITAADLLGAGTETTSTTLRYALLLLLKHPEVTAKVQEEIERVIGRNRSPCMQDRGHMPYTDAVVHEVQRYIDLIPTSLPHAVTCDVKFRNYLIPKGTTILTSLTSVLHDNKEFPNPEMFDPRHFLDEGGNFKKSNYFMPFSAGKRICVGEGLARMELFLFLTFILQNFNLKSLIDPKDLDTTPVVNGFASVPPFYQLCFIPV
The data set is described as follows: Inhibition of CYP2C19 (S-Mephenytoin 4-hydroxylation) by CK in HLMs. The method, then: as §1, §2

Where [4] appears, read: classified by IC50 according to Kong et al.
[5] abbreviates: CYP2C9 in HLMs, sulfaphenazole values ref 15, 16.

Entries after “also recorded” stand apart in the source; their conditions may differ. Where only a bound is given, the exact number is not on record here.

Sequence of CYP2C9 (P11712 whole entry): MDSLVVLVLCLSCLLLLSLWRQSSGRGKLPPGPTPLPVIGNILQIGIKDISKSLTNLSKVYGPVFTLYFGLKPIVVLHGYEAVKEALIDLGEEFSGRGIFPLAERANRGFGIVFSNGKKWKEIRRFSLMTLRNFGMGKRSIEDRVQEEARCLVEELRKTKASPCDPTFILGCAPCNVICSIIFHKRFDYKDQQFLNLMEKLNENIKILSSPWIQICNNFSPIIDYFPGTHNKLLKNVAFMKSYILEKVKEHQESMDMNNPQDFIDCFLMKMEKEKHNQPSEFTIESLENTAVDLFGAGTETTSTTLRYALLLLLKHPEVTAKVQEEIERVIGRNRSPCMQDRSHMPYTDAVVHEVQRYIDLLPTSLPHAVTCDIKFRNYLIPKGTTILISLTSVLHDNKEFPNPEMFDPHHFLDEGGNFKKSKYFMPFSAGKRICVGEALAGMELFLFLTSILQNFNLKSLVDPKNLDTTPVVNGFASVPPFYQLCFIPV

On to `CC(C)=CCC[C@](C)(OC1O[C@H](CO)[C@@H](O)[C@H](O)[C@H]1O)[C@H]1CC[C@]2(C)[C@@H]1[C@H](O)C[C@@H]1[C@@]3(C)CC[C@H](O)C(C)(C)[C@@H]3CC[C@]12C` (stereo partly drawn) [CK, 20-O-β-(D-glucopyranosyl)-20(S)-protopanaxadiol], for which the “inhibitory effect on the activity of CYP1A2” value in data set [1] (HLMs, CK 10–100 μM) is listed as “minimal; also recorded: negligible”. The IC50 in data set [1] (HLMs, phenacetin 10 μM, CK 10–100 μM) was more than 100 µM; in data set [2] (HLMs, tolbutamide 4-hydroxylation, tolbutamide 100 μM, CK 10–100 μM) it was 16 µM; in data set [3] (HLMs, S-Mephenytoin 100 μM, CK 10–100 μM), more than 100 µM. Moreover, the “inhibitor potency class for CYP1A2” value in data set [1] (setting [4]) is “weak (weak, if IC50≥100 μg/mL or ≥50 μM)”. In addition, the “IC50 of CK higher than that of sulfaphenazole” value in data set [2] (setting [5]) is given as 11-53 fold. In data set [2] (setting [5]), the “Ki of CK higher than that of sulfaphenazole” value amounted to 49 fold. In data set [2] (HLMs, Dixon and S/V versus [I] plots), the “type of inhibition of CYP2C9” value is “mixed type”. In data set [2] (HLMs, tolbutamide 25–200 μM, secondary plot of Lineweaver–Burk slopes), affinity was put at a Ki of 14.9 µM. Also, the “inhibitor potency class for CYP2C9” value in data set [2] (setting [4]) is “moderate (moderate, if IC50 20–100 μg/mL or 10–50 μM)”. In addition, the “inhibitory effect on the activity of CYP2C19” value in data set [3] (HLMs, CK 10–100 μM) is “minimal; also recorded: negligible”. Further, the “inhibitor potency class for CYP2C19” value in data set [3] (setting [4]) is “weak (weak, if IC50≥100 μg/mL or ≥50 μM)”.

One may read the IC50 as the concentration at which inhibition is half-maximal. A higher IC50 goes with lower potency. By Ki is commonly meant the equilibrium dissociation constant of an inhibitor or competing ligand from its target. Lower therefore signals higher affinity.
